From patent US12215234B2, “Process for the purification of methylene blue” (RK Pharma Solutions LLC, priority 2019, dated 2025)
Values joined by “and” are separate entries in the source; they are usually repeats but may differ in a detail not shown here. Equal values may be shown once.

Legend:
Type in all cases: physicochemical
[1] = Stability study of methylene blue at about 20-25° C. (25/60), six months; parameters: Highest Unknown / Total impurities / Azure B / Azure C: unit not given here; conditions: stability at 25° C., Trial 1-3
Protocol: (§1) Methylene blue product obtained by this process is then loaded for stability at about 20-25° C. and at about 40° C. Purity and metal content of Methylene blue is tested for up to six months.

[2] = Stability study of methylene blue at about 40° C. (40/75), six months; conditions: stability at 40° C., Trial 1-3
Protocol: as §1

[3] = pH of formulation containing methylene blue made by the prior-art process; conditions: methylene blue by process of Fundamental Processes of Dye Chemistry, isolated in the range of 3.0-4.5; pH increases
Text: Desired pH for the methylene blue formulation as per USP is in between 3.0-4.5.
Another area of concern is pH of formulated methylene blue. USP mentions that pH of methylene blue formulation should be in between about 3.0 to about 4.5. In formulation, pH of Methylene blue solution tends to increase drastically when the pH of the active pharmaceutical ingredient (API) is kept in between about 3.0 to about 4.5 as per prior art process. To overcome such a problem, the reaction mass pH is preferably kept less than about 2 and more preferably pH of less than about 1. Suitable acids for the adjustment of pH to below about 1 includes, but is not limited to, hydrochloric acid.

CN(C)c1ccc2nc3ccc(N(C)C)cc3[s+]c2c1 [Methylene blue, 3,7-bis(dimethylamino)phenothiazin-5-ylium chloride]
Azure B ([1]; impurity, 6M 25/60): 2.37 and 2.2 and 2.17
Azure C ([1]; impurity, 6M 25/60): 0.01
Highest Unknown ([1]; impurity, 6M 25/60): 0.04 and 0.06 and 0.08
Metal Content Mn ([1]; 6M 25/60): 0.68 ppm and 0.61 ppm and 0.48 ppm
Total impurities ([1]; 6M 25/60): 2.46 and 2.4 and 2.44
Total metal content ([1]; 6M 25/60, sum of Al, Cr, Cu, Mn, Zn): 76.51 ppm and 75.6 ppm and 57.41 ppm
Purity ([1]; profile 6M 25/60): 97.54 and 97.6 and 97.56
Azure B ([2]; impurity, 6M 40/75): 2.41 and 2.26
Azure C ([2]; impurity, 6M 40/75): 0.01
Metal Content Mn ([2]; 6M 40/75): 0.49 ppm and 0.51 ppm
Total impurities ([2]; 6M 40/75): 2.5 and 2.46 and 2.52
Total metal content ([2]; 6M 40/75, sum of Al, Cr, Cu, Mn, Zn): 74.97 ppm and 62.91 ppm and 62.48 ppm
Purity ([2]; profile 6M 40/75): 97.5 and 97.54 and 97.48
pH of the formulation containing methylene blue [3]: above 4.5
